From patent US20250213550A1, “COMPOUNDS AND METHODS FOR TREATING INFLAMMATORY BOWEL DISEASE” (Gilead Sciences, Inc., priority 2023, published 2025)
Where two headings read alike, the source gives them in different places.

Tested on: LPS-stimulated pERK in monocytes (TPL2 pathway)
Assay: Ex vivo LPS-stimulated pERK in monocytes of whole blood after Compound 1 dosing (flow cytometry)
Design: species or system human
Conditions: for inhibition at 300 mg / inhibition at 600 mg / inhibition at 900 mg / inhibition at 75 mg: Homo sapiens, Monocyte; for inhibition at 75 mg: 75 mg QD multiple dose
Description: For Cohorts 1-4, whole blood PD sampling occurred relative to the dose of Compound 1 at the following time points: • Day 1: 0 pre-dose (≤5 min prior to dosing), 1, 2, 3, 4, 8, 12, 24 and 36 hours post-dose
For Cohorts 5-9, whole blood PD sampling occurred relative to the dose of Compound 1 at the following time points: • Day 1: 0 pre-dose (≤5 min prior to dosing), 1, 2, 3, 4, 8, 12, and 24 hours post-dose • Day 10: 0 pre-dose (≤5 min prior to dosing), 1, 2, 3, 4, 8, 12, 24, 36, 48, 72, 96, and 120 hours post-dose
Whole blood PD Samples were stimulated ex vivo with lipopolysaccharide (LPS) or phosphate buffered saline (PBS), and the phosphorylation of extracellular signal-related kinase (pERK) was detected in monocytes by flow cytometry.
Pharmacodynamic changes after single and multiple doses of Compound 1 were also investigated by monitoring, in whole blood samples, stimulated with either lipopolysaccharide (LPS) or PBS for 15 minutes at 37° C. Changes to the phosphorylation of extracellular signal-regulated kinases (pERK) was measured in monocytes by flow cytometry, defined as CD15−CD14+.
Pharmacodynamic parameters for Compound 1 were calculated as percent change in pERK signal relative to Day 1 pre-dose (baseline) for all evaluable participants.
Multiple Ascending Doses: Pharmacodynamic parameters after multiple doses of Compound 1 were also calculated as percent change in pERK signal relative to Day 1 pre-dose (baseline) for all evaluable participants.

## Cn1ccc2c([C@@H](c3cn(C45CC(C4)C5)nn3)N(C(=O)OCOP(=O)(O)O)c3cc(Cl)c4ncc(C#N)c(NCC(C)(C)C)c4c3)cccc2c1=O [Compound 1]
300 mg QD multiple dose, Day 1 1 hour, mean (SD), read-out: pERK Signal, % Inhibition
  inhibition at 300 mg: 89.1%
300 mg QD multiple dose, Day 1 1 hour, median, read-out: pERK Signal, % Inhibition
  inhibition at 300 mg: 93.8%
300 mg QD multiple dose, Day 1 3 hours, mean (SD), read-out: pERK Signal, % Inhibition
  inhibition at 300 mg: 95.7%
300 mg QD multiple dose, Day 1 3 hours, median, read-out: pERK Signal, % Inhibition
  inhibition at 300 mg: 97.1%
300 mg QD multiple dose, Day 1 12 hours, mean (SD), read-out: pERK Signal, % Inhibition
  inhibition at 300 mg: 75.3%
300 mg QD multiple dose, Day 1 12 hours, median, read-out: pERK Signal, % Inhibition
  inhibition at 300 mg: 74.3%
300 mg QD multiple dose, Day 10 1 hour, mean (SD), read-out: pERK Signal, % Inhibition
  inhibition at 300 mg: 96.8%
300 mg QD multiple dose, Day 10 1 hour, median, read-out: pERK Signal, % Inhibition
  inhibition at 300 mg: 97.1%
300 mg QD multiple dose, Day 10 3 hours, mean (SD), read-out: pERK Signal, % Inhibition
  inhibition at 300 mg: 98.3%
300 mg QD multiple dose, Day 10 3 hours, median, read-out: pERK Signal, % Inhibition
  inhibition at 300 mg: 98.7%
300 mg QD multiple dose, Day 10 12 hours, mean (SD), read-out: pERK Signal, % Inhibition
  inhibition at 300 mg: 94%
300 mg QD multiple dose, Day 10 12 hours, median, read-out: pERK Signal, % Inhibition
  inhibition at 300 mg: 95.7%
300 mg QD multiple dose, Day 10 24 hours, mean (SD), read-out: pERK Signal, % Inhibition
  inhibition at 300 mg: 92.2%
300 mg QD multiple dose, Day 10 24 hours, median, read-out: pERK Signal, % Inhibition
  inhibition at 300 mg: 91.6%
600 mg BID multiple dose, Day 1 1 hour, mean (SD), read-out: pERK Signal, % Inhibition
  inhibition at 600 mg: 79.9%
600 mg BID multiple dose, Day 1 1 hour, median, read-out: pERK Signal, % Inhibition
  inhibition at 600 mg: 74.3%
600 mg BID multiple dose, Day 1 3 hours, mean (SD), read-out: pERK Signal, % Inhibition
  inhibition at 600 mg: 99.9%
600 mg BID multiple dose, Day 1 3 hours, median, read-out: pERK Signal, % Inhibition
  inhibition at 600 mg: 99.9%
600 mg BID multiple dose, Day 1 12 hours, mean (SD), read-out: pERK Signal, % Inhibition
  inhibition at 600 mg: 84.2%
600 mg BID multiple dose, Day 1 12 hours, median, read-out: pERK Signal, % Inhibition
  inhibition at 600 mg: 91%
600 mg BID multiple dose, Day 10 1 hour, mean (SD), read-out: pERK Signal, % Inhibition
  inhibition at 600 mg: 99.5%
600 mg BID multiple dose, Day 10 1 hour, median, read-out: pERK Signal, % Inhibition
  inhibition at 600 mg: 100%
600 mg BID multiple dose, Day 10 3 hours, mean (SD), read-out: pERK Signal, % Inhibition
  inhibition at 600 mg: 100%
600 mg BID multiple dose, Day 10 3 hours, median, read-out: pERK Signal, % Inhibition
  inhibition at 600 mg: 100%
600 mg BID multiple dose, Day 10 12 hours, mean (SD), read-out: pERK Signal, % Inhibition
  inhibition at 600 mg: 100%
600 mg BID multiple dose, Day 10 12 hours, median, read-out: pERK Signal, % Inhibition
  inhibition at 600 mg: 100%
600 mg BID multiple dose, Day 10 24 hours, mean (SD), read-out: pERK Signal, % Inhibition
  inhibition at 600 mg: 103%
600 mg BID multiple dose, Day 10 24 hours, median, read-out: pERK Signal, % Inhibition
  inhibition at 600 mg: 102%
900 mg QD multiple dose, Day 1 1 hour, mean (SD), read-out: pERK Signal, % Inhibition
  inhibition at 900 mg: 88.9%
900 mg QD multiple dose, Day 1 1 hour, median, read-out: pERK Signal, % Inhibition
  inhibition at 900 mg: 95%
900 mg QD multiple dose, Day 1 3 hours, mean (SD), read-out: pERK Signal, % Inhibition
  inhibition at 900 mg: 99.8%
900 mg QD multiple dose, Day 1 3 hours, median, read-out: pERK Signal, % Inhibition
  inhibition at 900 mg: 99.6%
900 mg QD multiple dose, Day 1 12 hours, mean (SD), read-out: pERK Signal, % Inhibition
  inhibition at 900 mg: 95.2%
900 mg QD multiple dose, Day 1 12 hours, median, read-out: pERK Signal, % Inhibition
  inhibition at 900 mg: 95.3%
900 mg QD multiple dose, Day 10 1 hour, mean (N=1), read-out: pERK Signal, % Inhibition
  inhibition at 900 mg: 99.4%
900 mg QD multiple dose, Day 10 1 hour, median (N=1), read-out: pERK Signal, % Inhibition
  inhibition at 900 mg: 99.4%
900 mg QD multiple dose, Day 10 3 hours, mean (N=1), read-out: pERK Signal, % Inhibition
  inhibition at 900 mg: 99.6%
900 mg QD multiple dose, Day 10 3 hours, median (N=1), read-out: pERK Signal, % Inhibition
  inhibition at 900 mg: 99.6%
900 mg QD multiple dose, Day 10 12 hours, mean (N=1), read-out: pERK Signal, % Inhibition
  inhibition at 900 mg: 96.7%
900 mg QD multiple dose, Day 10 12 hours, median (N=1), read-out: pERK Signal, % Inhibition
  inhibition at 900 mg: 96.7%
900 mg QD multiple dose, Day 10 24 hours, mean (SD), read-out: pERK Signal, % Inhibition
  inhibition at 900 mg: 98.3%
900 mg QD multiple dose, Day 10 24 hours, median, read-out: pERK Signal, % Inhibition
  inhibition at 900 mg: 98.5%
24 h, Day 1 24 hours, mean (SD), read-out: pERK Signal, % Inhibition
  inhibition at 75 mg: 1%
24 h, Day 1 24 hours, median, read-out: pERK Signal, % Inhibition
  inhibition at 75 mg: 4.4%
24 h, 300 mg QD multiple dose, Day 1 24 hours, mean (SD), read-out: pERK Signal, % Inhibition
  inhibition at 300 mg: 72.9%
24 h, 300 mg QD multiple dose, Day 1 24 hours, median, read-out: pERK Signal, % Inhibition
  inhibition at 300 mg: 71.5%
24 h, 300 mg QD, steady state, 24 hours post-last dose, read-out: inhibition of LPS-stimulated pERK
  inhibition at 300 mg: > 90%
24 h, 600 mg BID multiple dose, Day 1 24 hours, mean (SD), read-out: pERK Signal, % Inhibition
  inhibition at 600 mg: 97.6%
24 h, 600 mg BID multiple dose, Day 1 24 hours, median, read-out: pERK Signal, % Inhibition
  inhibition at 600 mg: 99.5%
24 h, 600 mg BID, steady state, 24 hours post-last dose, read-out: inhibition of LPS-stimulated pERK
  inhibition at 600 mg: > 90%
24 h, 900 mg QD multiple dose, Day 1 24 hours, mean (SD), read-out: pERK Signal, % Inhibition
  inhibition at 900 mg: 90.2%
24 h, 900 mg QD multiple dose, Day 1 24 hours, median, read-out: pERK Signal, % Inhibition
  inhibition at 900 mg: 89.9%
24 h, 900 mg QD, steady state, 24 hours post-last dose, read-out: inhibition of LPS-stimulated pERK
  inhibition at 900 mg: > 90%
240 h, Day 10 predose, mean (SD), read-out: pERK Signal, % Inhibition
  inhibition at 75 mg: 24.4%
240 h, Day 10 predose, median, read-out: pERK Signal, % Inhibition
  inhibition at 75 mg: 41.3%
240 h, 300 mg QD multiple dose, Day 10 predose, mean (SD), read-out: pERK Signal, % Inhibition
  inhibition at 300 mg: 93.5%
240 h, 300 mg QD multiple dose, Day 10 predose, median, read-out: pERK Signal, % Inhibition
  inhibition at 300 mg: 93.4%
240 h, 600 mg BID multiple dose, Day 10 predose, mean (SD), read-out: pERK Signal, % Inhibition
  inhibition at 600 mg: 98.6%
240 h, 600 mg BID multiple dose, Day 10 predose, median, read-out: pERK Signal, % Inhibition
  inhibition at 600 mg: 100%
240 h, 900 mg QD multiple dose, Day 10 predose, mean (N=1), read-out: pERK Signal, % Inhibition
  inhibition at 900 mg: 97.1%
240 h, 900 mg QD multiple dose, Day 10 predose, median (N=1), read-out: pERK Signal, % Inhibition
  inhibition at 900 mg: 97.1%
SAD and MAD cohorts
  inhibition of LPS-stimulated pERK in ex vivo whole blood samples: dose-dependent and reversible inhibition
Single oral doses, fasted, all dosages, post-dose
  time of peak inhibition of LPS-stimulated pERK: 3 hours
